Columns and labels:
[1] = heat stability to withstand spray drying; format: physicochemical; details: temperature range of from about 40° C. to about 100° C.
COX-2 = target: T1, COX-2 (Homo sapiens, UniProt P35354); experiment: in vitro activity of COX-2; format: biochemical
T1 sequence (P35354 18-604): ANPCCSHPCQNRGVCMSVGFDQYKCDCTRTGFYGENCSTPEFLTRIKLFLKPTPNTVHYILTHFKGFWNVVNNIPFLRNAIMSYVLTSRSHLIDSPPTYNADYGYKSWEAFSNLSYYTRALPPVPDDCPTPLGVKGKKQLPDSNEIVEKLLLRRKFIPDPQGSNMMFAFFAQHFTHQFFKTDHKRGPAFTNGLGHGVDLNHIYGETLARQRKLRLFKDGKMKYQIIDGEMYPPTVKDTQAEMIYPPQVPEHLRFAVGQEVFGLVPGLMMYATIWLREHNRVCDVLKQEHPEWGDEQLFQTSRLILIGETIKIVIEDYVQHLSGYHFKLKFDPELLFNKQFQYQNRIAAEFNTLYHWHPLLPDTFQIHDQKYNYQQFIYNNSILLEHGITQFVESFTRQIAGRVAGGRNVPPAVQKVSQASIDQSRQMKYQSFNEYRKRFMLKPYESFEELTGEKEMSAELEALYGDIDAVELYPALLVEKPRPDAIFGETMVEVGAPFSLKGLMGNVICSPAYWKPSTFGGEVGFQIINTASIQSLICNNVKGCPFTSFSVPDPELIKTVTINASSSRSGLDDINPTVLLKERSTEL

[2] = Comparative dissolution of crystalline Form B and amorphous compound; format: physicochemical; details: 150 mg in 900 mL, 37° C., paddle speed 100 rpm, particle size 212-425 μm, HPLC
Protocol: Dissolution rates for the crystalline compound having Form B and the amorphous compound were determined and compared in two media: water and simulated intestinal fluid (SIF) minus pancreatin.
Initial materials were sieved and material with a particle size between 212 and 425 μm was used for the study. A 150 mg sample was added to 900 mL of fluid in a dissolution bath. A temperature of 37° C. and a paddle speed of 100 rpm were used for the dissolution. Samples were pulled at specific time points (5, 15, 30 120, and 240 min) and filtered through a 0.2 μm nylon filter. Samples were analyzed by HPLC.

Question: With `Cc1nc(C2CCCCC2)c(-c2ccc(S(N)(=O)=O)c(F)c2)o1` [5-(4-aminosulfonyl-3-fluorophenyl)-4-cyclohexyl-2-methyloxazole] as the molecule, how does the heat stability [1] read?
Answer: sufficient heat stability

Question: Which “inhibits in vitro activity of COX-2” value (COX-2) does the source give for `Cc1nc(C2CCCCC2)c(-c2ccc(S(N)(=O)=O)c(F)c2)o1` [amorphous compound, 5-(4-aminosulfonyl-3-fluorophenyl)-4-cyclohexyl-2-methyloxazole] here?
Answer: nanomolar range

Question: And the “dissolution rate in simulated intestinal fluid (SIF) minus pancreatin” value [2]?
Answer: dissolved more rapidly

Question: What about the “dissolution rate in water” value [2] of the same molecule?
Answer: dissolved more rapidly

Question: What does the source list for `Cc1nc(C2CCCCC2)c(-c2ccc(S(N)(=O)=O)c(F)c2)o1` [crystalline compound having Form B, 5-(4-aminosulfonyl-3-fluorophenyl)-4-cyclohexyl-2-methyloxazole]?
Answer: dissolution rate in simulated intestinal fluid (SIF) minus pancreatin [2]: significantly slower dissolution rate than the amorphous form; dissolution rate in water [2]: significantly slower dissolution rate than the amorphous form

From patent US20020032226A1, “Novel form of an oxazole compound” (priority 2000, published 2002)
